Patent publication US11639350B2, “Heteroaryldihydropyrimidine derivatives and methods of treating hepatitis B infections” (Janssen Pharmaceutica NV, priority 2018, dated 2023)
Like-named read-outs stand apart in the source and are kept apart here.

Assays:
HBV = HBV inhibitory activity: HBV DNA in the culture medium of HepG2.2.15 cells by q-PCR; assay type: cell-based; details: Hepatitis B virus, HepG2.2.15, 144 h
Method in brief: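 Supernatant HBV DNA quantified by q-PCR after a 6-day compound exposure, with one mid-course medium change, of HepG2.2.15 cells (stably integrated HBV; 40,000 per well, 2% FBS). Eight-point 3-fold series topped at 10 μM for antiviral EC50; separate plates of 5,000 cells per well with 100 μM top give CC50.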

[1] = Cytotoxicity determination in HepG2.2.15 cells (CCK-8); assay type: cell-based; details: human, 6 days of compound treatment, CCK-8, highest concentration 100 μM
Method in brief: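 CC50 is from CCK-8 absorbance (450 nm, 630 nm reference) after 2.5 h with reagent. Before that, compounds were applied for six days, top concentration 100 μM, eight threefold dilutions, one mid-course medium change, to stably HBV-integrated HepG2.2.15 cells plated at 5,000/well in 2% FBS.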

[2] = HepG2.2.15 cells, 6 days of compound treatment, HBV DNA in culture medium by q-PCR, highest concentration 10 μM, read-out: EC50

COC(=O)C1=C(C2CCN(S(=O)(=O)c3nccs3)CC2)NC(c2nccs2)=NC1c1ccc(F)cc1Cl (stereo not shown) [Compound 200A, Methyl 4-(2-chloro-4-fluorophenyl)-2-(thiazol-2-yl)-6-(1-(thiazol-2-ylsulfonyl)piperidin-4-yl)-1,4-dihydropyrimidine-5-carboxylate]
EC50 (HBV; [2]): 102 nM | CC50 at 6 days [1]: > 100000 nM

CCOC(=O)C1=C(C2CCN(S(=O)(=O)[C@H]3C[C@H](C(=O)O)C3)CC2)NC(c2nccs2)=NC1c1ccc(F)c(F)c1Cl (relative stereo) [Compound 370B, (trans)-3-((4-(6-(2-Chloro-3,4-difluorophenyl)-5-(ethoxycarbonyl)-2-(thiazol-2-yl)-3,6-dihydropyrimidin-4-yl)piperidin-1-yl)sulfonyl)cyclobutanecarboxylic Acid]
EC50 (HBV; [2]): 4 nM | CC50 at 6 days [1]: 23200 nM

CCOC(=O)C1=C([C@@H]2C[C@H](NC(C)=O)CO2)NC(c2nccs2)=NC1c1cccc(F)c1Cl (relative stereo) [Compound 262, (cis)-Ethyl 6-(4-acetamidotetrahydrofuran-2-yl)-4-(2-chloro-3-fluorophenyl)-2-(thiazol-2-yl)-1,4-dihydropyrimidine-5-carboxylate]
EC50 (HBV; [2]): 400 nM | CC50 at 6 days [1]: 75800 nM

COC(=O)C1=C(C2CCN(S(C)(=O)=O)CC2)NC(c2c(F)cc(F)cc2F)=NC1c1ccc(F)cc1Cl (single isomer, unassigned) [Compound 54A, Methyl 4-(2-chloro-4-fluorophenyl)-6-(1-(methylsulfonyl)piperidin-4-yl)-2-(2,4,6-trifluorophenyl)-1,4-dihydropyrimidine-5-carboxylate]
EC50 (HBV; [2]): 19 nM | CC50 at 6 days [1]: 31200 nM

COC(=O)C1=C([C@H]2CC[C@H](C(=O)O)CC2)NC(c2nccs2)=NC1c1cccc(F)c1Br (stereo partly shown) [Compound 152A]
EC50 (HBV; [2]): 92 nM | CC50 at 6 days [1]: 39500 nM

CCOC(=O)C1=C([C@H]2CC[C@H](C(=O)OC)CC2)NC(c2nccs2)=NC1c1ccc(F)cc1Cl (single isomer, unassigned) [Compound 20X, Ethyl 4-(2-chloro-4-fluorophenyl)-6-(trans-4-(methoxycarbonyl)-cyclohexyl)-2-(thiazol-2-yl)-1,4-dihydropyrimidine-5-carboxylate]
EC50 (HBV; [2]): 52 nM | CC50 at 6 days [1]: 27200 nM

COC(=O)C1=C(C2CCN(S(=O)(=O)CCOCCO)CC2)NC(c2nccs2)=NC1c1ccc(F)cc1Cl (stereo not shown) [Compound 484, Methyl 4-(2-chloro-4-fluorophenyl)-6-(1-((2-(2-hydroxyethoxy)ethyl)sulfonyl)piperidin-4-yl)-2-(thiazol-2-yl)-1,4-dihydropyrimidine-5-carboxylate]
EC50 (HBV): 5 nM | CC50 at 6 days [1]: 47000 nM

COC(=O)C1=C(C2CCN(S(=O)(=O)C[C@H]3CC[C@H](C(=O)O)CC3)CC2)NC(c2nccs2)=NC1c1ccc(F)cc1Cl (stereo partly drawn) [Compound 422, trans-4-(((4-(6-(2-chloro-4-fluorophenyl)-5-(methoxycarbonyl)-2-(thiazol-2-yl)-3,6-dihydropyrimidin-4-yl)piperidinyl)sulfonyl)methyl)cyclohexane-1-carboxylic Acid]
EC50 (HBV; [2]): 27 nM | CC50 at 6 days [1]: 26900 nM

COC(=O)C1=C(C2CCN(S(=O)(=O)CCO)CC2)NC(c2nccs2)=NC1c1ccc(F)c(F)c1Cl (stereo not shown) [Compound 474, methyl 4-(2-chloro-3,4-difluorophenyl)-6-(1-((2-hydroxyethyl)sulfonyl)piperidin-4-yl)-2-(thiazol-2-yl)-1,4-dihydropyrimidine-5-carboxylate]
EC50 (HBV; [2]): 7 nM | CC50 at 6 days [1]: 18300 nM

CCOC(=O)C1=C(C2CCN(S(=O)(=O)[C@H]3C[C@H](C(=O)O)C3)CC2)NC(c2nccs2)=NC1c1ccc(F)cc1Br (stereo partly drawn) [Compound 333B, (trans)-3-((4-(6-(2-bromo-4-fluorophenyl)-5-(ethoxycarbonyl)-2-(thiazol-2-yl)-3,6-dihydropyrimidin-4-yl)piperidin-1-yl)sulfonyl)cyclobutane-1-carboxylic Acid]
EC50 (HBV; [2]): 35 nM | CC50 at 6 days [1]: 33100 nM

CCOC(=O)C1=C(C2CCN(S(=O)(=O)[C@H]3C[C@H](C(=O)O)C3)CC2)NC(c2nccs2)=NC1c1ccccc1Cl (stereo partly drawn) [Compound 146, (trans)-3-((4-(6-(2-chlorophenyl)-5-(ethoxycarbonyl)-2-(thiazol-2-yl)-3,6-dihydropyrimidin-4-yl)piperidin-1-yl)sulfonyl)cyclobutane-1-carboxylic Acid]
EC50 (HBV; [2]): 68 nM | CC50 at 6 days [1]: 42100 nM

COC(=O)C1=C(C2CCN(S(=O)(=O)C(C)(C)C(=O)O)CC2)NC(c2nccs2)=NC1c1ccc(F)cc1Cl (stereo not shown) [Compound 7, 2-((4-(6-(2-Chloro-4-fluorophenyl)-5-(methoxycarbonyl)-2-(thiazol-2-yl)-3,6-dihydro-pyrimidin-4-yl)piperidin-1-yl)sulfonyl)-2-methylpropanoic Acid]
EC50 (HBV; [2]): 168 nM | CC50 at 6 days [1]: > 100000 nM

CCOC(=O)C1=C(C2CCN(S(=O)(=O)[C@H]3C[C@H](C(=O)O)C3)CC2)NC(c2nccs2)=NC1c1ccc(F)cc1Cl (stereo partly drawn) [Compound 329B, (trans)-3-((4-(6-(2-Chloro-4-fluorophenyl)-5-(ethoxycarbonyl)-2-(thiazol-2-yl)-3,6-dihydropyrimidin-4-yl)piperidin-1-yl)sulfonyl)cyclobutane-carboxylic Acid]
EC50 (HBV; [2]): 69 nM | CC50 at 6 days [1]: 60000 nM

CCOC(=O)C1=C([C@H]2CC[C@H](C(=O)O)CC2)NC(c2nccs2)=NC1c1ccc(F)cc1Cl (single isomer, unassigned) [Compound 21, trans-4-(6-(2-Chloro-4-fluorophenyl)-5-(ethoxycarbonyl)-2-(thiazol-2-yl)-3,6-dihydropyrimidin-4-yl)cyclohexanecarboxylic Acid]
EC50 (HBV; [2]): 31 nM | CC50 at 6 days [1]: 9900 nM

COC(=O)C1=C(C2CCN(S(=O)(=O)CCC(N)=O)CC2)NC(c2nccs2)=NC1c1ccc(F)cc1Cl (stereo not shown) [Compound 457, Methyl 6-(1-((3-amino-3-oxopropyl)sulfonyl)piperidin-4-yl)-4-(2-chloro-4-fluorophenyl)-2-(thiazol-2-yl)-1,4-dihydropyrimidine-5-carboxylate]
EC50 (HBV; [2]): 54 nM | CC50 at 6 days [1]: 63400 nM

COC(=O)C1=C([C@H]2CC[C@H](N(C)S(C)(=O)=O)CC2)NC(c2nccs2)=NC1c1ccc(F)cc1Cl (single isomer, unassigned) [Compound 388B, (trans)-Methyl 4-(2-chloro-4-fluorophenyl)-6-(4-(N-methylmethylsulfonamido)cyclohexyl)-2-(thiazol-2-yl)-1,4-dihydropyrimidine-5-carboxylate]
EC50 (HBV; [2]): 28 nM | CC50 at 6 days [1]: 27800 nM

COC(=O)C1=C(C2CCN(S(=O)(=O)C(F)F)CC2)NC(c2nccs2)=NC1c1ccc(F)c(F)c1Cl (single isomer, unassigned) [Compound 166A, Methyl 4-(2-chloro-3,4-difluorophenyl)-6-(1-((difluoromethyl)sulfonyl)piperidin-4-yl)-2-(thiazol-2-yl)-1,4-dihydropyrimidine-5-carboxylate]
EC50 (HBV; [2]): 61 nM | CC50 at 6 days [1]: > 50000 nM

COC(=O)C1=C(C23CC(NS(=O)(=O)c4cccc(C(=O)O)c4)(C2)C3)NC(c2nccs2)=NC1c1ccc(F)cc1Cl (stereo not shown) [Compound 208B, 3-(N-(3-(6-(2-Chloro-4-fluorophenyl)-5-(methoxycarbonyl)-2-(thiazol-2-yl)-3,6-dihydropyrimidin-4-yl)bicyclo[1.1.1]pentan-1-yl)sulfamoyl)benzoic acid]
EC50 (HBV; [2]): 280 nM | CC50 at 6 days [1]: > 100000 nM

COC(=O)C1=C([C@H]2C[C@@H](C)CO2)NC(c2nccs2)=NC1c1cccc(F)c1Cl (relative stereo) [Compound 171, (cis)-Methyl 4-(2-chloro-3-fluorophenyl)-6-(4-methyltetrahydrofuran-2-yl)-2-(thiazol-2-yl)-1,4-dihydropyrimidine-5-carboxylate]
EC50 (HBV; [2]): 124 nM | CC50 at 6 days [1]: 15500 nM

CNS(=O)(=O)[C@H]1CC[C@@H](C2=C(C(=O)OC)C(c3cccc(F)c3Cl)N=C(c3nccs3)N2)CC1 (single isomer, unassigned) [Compound 259C, (cis)-methyl 4-(2-chloro-3-fluorophenyl)-6-(4-(N-methylsulfamoyl)cyclohexyl)-2-(thiazol-2-yl)-1,4-dihydropyrimidine-5-carboxylate]
EC50 (HBV; [2]): 36 nM | CC50 at 6 days [1]: 12700 nM

CCOC(=O)C1=C(C2CCN(S(=O)(=O)C3CC(C)(C(=O)O)C3)CC2)NC(c2nccs2)=NC1c1ccc(F)cc1C (stereo not drawn) [Compound 420A, (trans)-3-((4-(5-(Ethoxycarbonyl)-6-(4-fluoro-2-methylphenyl)-2-(thiazol-2-yl)-3,6-dihydropyrimidin-4-yl)piperidin-1-yl)sulfonyl)-1-methylcyclobutanecarboxylic Acid]
EC50 (HBV; [2]): 76 nM | CC50 at 6 days [1]: 20800 nM

CCOC(=O)C1=C(C2CCN(S(=O)(=O)C[C@H]3CC[C@H](C(=O)O)CC3)CC2)NC(c2nccs2)=NC1c1ccc(F)c(F)c1Cl (stereo partly drawn) [Compound 424, trans-4-(((4-(6-(2-chloro-3,4-difluorophenyl)-5-(ethoxycarbonyl)-2-(thiazol-2-yl)-3,6-dihydropyrimidin-4-yl)piperidinyl)sulfonyl)methyl)cyclohexane-1-carboxylic Acid]
EC50 (HBV; [2]): 7 nM | CC50 at 6 days [1]: 8200 nM

COC(=O)C1=C([C@H]2CC[C@H](N(CCO)CC(F)(F)F)CC2)NC(c2nccs2)=NC1c1ccc(F)c(F)c1Cl (single isomer, unassigned) [Compound 434B, (trans)-Methyl 4-(2-chloro-3,4-difluorophenyl)-6-(4-((2-hydroxyethyl)(2,2,2-trifluoroethyl)amino)cyclohexyl)-2-(thiazol-2-yl)-1,4-dihydropyrimidine-5-carboxylate]
EC50 (HBV; [2]): 128 nM | CC50 at 6 days [1]: 6800 nM
